Structures can show the parent of a compound that is named as a salt. Where two headings read alike, the source gives them in different places.
Columns and labels:
[1] = without side effects such as α- or β-adrenergic blockade, sedative or depressant effect; cited from earlier work
[2] = assay type: in vivo, rabbit; conditions: i.m. injection, plasma, from 15 min, extrapolated to infinity
Procedure: The selected rabbits were administrated intramuscular with stephaglabrine sulfate at doses 0.1 mg/kg as it was established before. Each animal received a single dose.
Quantitative analysis was acquired in SRM (selected reactions monitoring) mode on Agilent 6490 triple quadrupole mass spectrometer (Agilent, USA) operated in the positive mode and equipped with Jet Stream ESI ion source. Stepharine was detected in the scheduled selected reaction monitoring (SRM) with unit resolution at both first (Q1) and third (Q3) quadrupoles. The retention time point of stepharine was determined as 9.8 with isolation width of 1 minute for the scheduled SRM method application. The optimal conditions of the analysis were achieved as follows: capillary voltage was −4500 V, nozzle voltage was set at −1200 V, flow rate of drying gas (N2) was 16 L/min, flow rate of sheath gas (N2) was 8 L/min, temperature of drying gas was set at 340°C, temperature of sheath gas was set at 290°C, and nebulizer gas was operated at 20 psi. The transitions for protonated stepharine [M+H]^+ 298.4 → 161.2, 192.1, 238.2 were selected for SRM analysis. The isolation window for the fragment ions was set at 0.27 amu, the optimum fragmentor voltage was adjusted to 310 V and collision energy −19 eV. All the samples including calibration points were analyzed in three replications. 30 μL of the samples was injected and loaded on chromatographic column. Calibration was performed on standard samples solution prepared in 20% acetonitrile with concentration of stepharine from 10^−4 μg/mL to 100 μg/mL. Chromatographic separation was performed on Thermo Hypersil-Keystone ODS column (Thermo Scientific, USA) 100 × 2.1 mm, 5 μm particle size, at flow rate of 200 μL/min and with the following elution conditions: loading onto the column at maintained 20% of mobile phase B for 3 minutes, increasing the gradient to 50% of B at 5 minutes following increasing the gradient to 100% of mobile phase B at 15 minutes. The column was washed and maintained at 100% mobile phase B from 15 to 22 minutes and the composition was decreased to 20% of solvent B at 23 minute. The column was reequilibrated at starting conditions of solvent A-solvent B system ([…], v/v) for 10 minutes at flow 200 μL/min.
0.5 mL of blood samples from each animal was collected from ear vein in the tubes with EDTA before administration and at 15, 30, 60, 90, 120, 180, 480, 720, and 1440 minutes after drug ingestion. Blood samples were immediately put on ice and centrifuged at 5000 g for 10 minutes at 4°C within one hour after blood collection. The obtained plasma was placed in sterile tube and kept at −20°C until analysis.
Plasma proteins were precipitated with acetonitrile. For this purpose, two volumes of acetonitrile were added to 100 μL of rabbit plasma into 1.5 mL plastic tube and 30% ammonia hydroxide was added to adjust the pH to 10. After vortex-mixing for 15 minutes at ambient temperature one volume of chloroform was added three times consequently for 2 hours and incubated at 30°C under regular stirring at 900 rpm at each occasion. The first fraction of upper organic layer was collected after 2 hours of incubation, the second and the third fractions of chloroform extract were collected after additional 30 and 60 minutes of incubation, respectively. The collected fractions were combined and transferred to a new tube and dried under vacuum at 30°C. The resulting pellet was resuspended in 100 μL of 20% water-acetonitrile solution and centrifuged at 14000 rpm for 15 minutes immediately before use. The obtained solution was used for LC-MS analysis. […]

[3] = system: denervated extremities at traumatic injuries of sciatic nerve; set-up: method as in ref 4, 5 = [4]; 4 Kuznecov J Arzamascev E Malinovskaja C Pharmacological properties and toxicologic characteristics of stefaglabrin sulphate Medicines Plant Origin in Modern Therapy 1989 2 p. 71 || [5]; 5 Schelchkova II Il'inskaya TN Kuzovkov AD The alkaloids of Stephania glabra Chemistry of Natural Compounds 1965 1 4 210 212; conditions: rabbits, intramuscular injection 0.1 mg/kg; cited from earlier work
[4] = system: pseudocholinesterase; set-up: method as in ref 11 = [11]; 11 Berezhinskaya VV Nikittna SS Trutneva EA Medicinal plants pharmacology and chemotherapy Trudy Vsesoyuznogo Nauchno-Issledovatel'skogo Instituta Lekarstvenny Rastenii 1971 14 66 69; conditions: in vitro; cited from earlier work
[5] = dichloromethane and hexane as extracting solvents
[6] = water and aqueous alcohol; cited from earlier work
[7] = system: synaptic transmission; set-up: method as in PMID 1652103; conditions: at low concentration; cited from earlier work
[8] = system: cholinesterase; set-up: method as in ref 11 = [11]; 11 Berezhinskaya VV Nikittna SS Trutneva EA Medicinal plants pharmacology and chemotherapy Trudy Vsesoyuznogo Nauchno-Issledovatel'skogo Instituta Lekarstvenny Rastenii 1971 14 66 69; conditions: in vitro; cited from earlier work

## COc1cc2c3c(c1OC)C1(C=CC(=O)C=C1)C[C@H]3NCC2 [stephaglabrine sulfate, Stephaglabrine sulfate]
[1]
  antihypertensive activity: possesses antihypertensive activity
[2]; rabbit ST01, dosage 0.50 mg (0.1 mg/kg)
  AUC15: 1661 ng∗min/mL
[2]; rabbit ST02, dosage 0.50 mg (0.1 mg/kg)
  AUC15: 3187 ng∗min/mL
[2]; rabbit ST04, dosage 0.45 mg (0.1 mg/kg)
  AUC15: 2516 ng∗min/mL
[2]; rabbit ST05, dosage 0.50 mg (0.1 mg/kg)
  AUC15: 2217 ng∗min/mL
[2]; rabbit ST06, dosage 0.50 mg (0.1 mg/kg)
  AUC15: 2769 ng∗min/mL
[3]
  intensity of trophic disturbances of denervated extremities: significantly decreases intensity of trophic disturbances
[4]
  inhibition of pseudocholinesterase: inhibits
[5]
  solubility in highly nonpolar solvents: low solubility
[6]
  solubility: soluble in water and aqueous alcohol
[7]
  frequency of miniature endplate potential: diminishes frequency of miniature endplate potential
[8]
  inhibition of cholinesterase: inhibits
